Values of other authors in patent US20190262453A1, “DESIGN AND COMPOSITION OF CELL-STABILIZED PHARMACEUTICAL FORMULATIONS” (THE REGENTS OF THE UNIVERSITY OF MICHIGAN, priority 2016, published 2019).
Where “and” joins values, the source holds several entries; their conditions need not be identical. Equal entries are not always repeated.

Settings: in vivo; cited from earlier work

Structure (SMILES)	Vd
COc1cc2nc(N(C)CCCNC(=O)C3CCCO3)nc(N)c2cc1OC (centres unmarked) [Alfuzosin]	3.2 L/kg
O=C1CCc2ccc(OCCCCN3CCN(c4cccc(Cl)c4Cl)CC3)cc2N1 [Aripiprazole]	4.9 L/kg
CC[C@H]1OC(=O)[C@H](C)[C@@H](O[C@H]2C[C@@](C)(OC)[C@@H](O)[C@H](C)O2)[C@H](C)[C@@H](O[C@@H]2O[C@H](C)C[C@H](N(C)C)[C@H]2O)[C@](C)(O)C[C@@H](C)CN(C)[C@H](C)[C@@H](O)[C@]1(C)O [Azithromycin]	31 L/kg
CC(NC(C)(C)C)C(=O)c1cccc(Cl)c1 (centres unmarked) [Bupropion]	18.6 L/kg
O=C1CC2(CCCC2)CC(=O)N1CCCCN1CCN(c2ncccn2)CC1 [Buspirone]	5.3 L/kg
CCCCCOC(=O)Nc1nc(=O)n([C@@H]2O[C@H](C)[C@@H](O)[C@H]2O)cc1F [Capecitabine]	27.27 L/kg
Cc1ccc(-c2cc(C(F)(F)F)nn2-c2ccc(S(N)(=O)=O)cc2)cc1 [Celecoxib]	6.12 L/kg
CCN(CC)CCCC(C)Nc1ccnc2cc(Cl)ccc12 (centres unmarked) [Chloroquine]	196.5 L/kg
CN(C)CCC(c1ccc(Cl)cc1)c1ccccn1 (centres unmarked) [Chlorpheniramine]	3.2 L/kg
CN(C)CCCN1c2ccccc2Sc2ccc(Cl)cc21 [Chlorpromazine]	21 L/kg
C[C@@H](NCCCc1cccc(C(F)(F)F)c1)c1cccc2ccccc12 [Cinacalcet]	17.6 L/kg
O=C1CN=C(c2ccccc2Cl)c2cc([N+](=O)[O-])ccc2N1 [Clonazepam]	3.2 L/kg
CN1CCN(C2=Nc3cc(Cl)ccc3Nc3ccccc32)CC1 [Clozapine]	5.4 L/kg
CN(C)CC(c1ccc(O)cc1)C1(O)CCCCC1 (centres unmarked) [Desvenlafaxine]	7.5 L/kg
COc1ccc([C@@H]2Sc3ccccc3N(CCN(C)C)C(=O)[C@@H]2OC(C)=O)cc1 [Diltiazem]	3.3 L/kg
CC(=O)O[C@@]12CO[C@@H]1C[C@H](O)[C@@]1(C)C(=O)[C@H](O)C3=C(C)[C@@H](OC(=O)[C@H](O)[C@@H](NC(=O)OC(C)(C)C)c4ccccc4)C[C@@](O)([C@@H](OC(=O)c4ccccc4)[C@H]21)C3(C)C [Docetaxel]	7.27 L/kg
CN(C)CCC=C1c2ccccc2COc2ccccc21 [Doxepin]	24 L/kg
COc1cccc2c1C(=O)c1c(O)c3c(c(O)c1C2=O)C[C@@](O)(C(=O)CO)C[C@@H]3O[C@H]1C[C@H](N)[C@H](O)[C@H](C)O1 [Doxorubicin]	682 L/kg
CCCCCc1cc(O)c2c(c1)OC(C)(C)[C@@H]1CCC(C)=C[C@@H]21 [Dronabinol]	8.9 L/kg

Structure (SMILES)	Vd
CNCC[C@H](Oc1cccc2ccccc12)c1cccs1 [Duloxetine]	7 L/kg
Nc1nc(=O)n([C@@H]2CS[C@H](CO)O2)cc1F [Emtricitabine]	3.5 L/kg
O=C(NCC1CCCCN1)c1cc(OCC(F)(F)F)ccc1OCC(F)(F)F (centres unmarked) [Flecainide]	4.9 L/kg
CNCCC(Oc1ccc(C(F)(F)F)cc1)c1ccccc1 (centres unmarked) [Fluoxetine]	35 L/kg
OCCN1CCN(CCCN2c3ccccc3Sc3ccc(C(F)(F)F)cc32)CC1 [Fluphenazine]	11 L/kg
C[C@]12CC[C@@H]3c4ccc(O)cc4C[C@@H](CCCCCCCCC[S+]([O-])CCCC(F)(F)C(F)(F)F)[C@H]3[C@@H]1CC[C@@H]2O (some centres unmarked) [Fulvestrant]	4.15 L/kg
O=C(CCCN1CCC(O)(c2ccc(Cl)cc2)CC1)c1ccc(F)cc1 [Haloperidol]	18 L/kg
CCN(CCO)CCCC(C)Nc1ccnc2cc(Cl)ccc12 (centres unmarked) [Hydroxychloroquine]	525 L/kg
OCCOCCN1CCN(C(c2ccccc2)c2ccc(Cl)cc2)CC1 (centres unmarked) [Hydroxyzine]	19 L/kg and 16 L/kg
CCCCCN(C)CCC(O)(P(=O)(O)O)P(=O)(O)O [Ibandronate]	5.8 L/kg
CC(=O)[C@]1(O)Cc2c(O)c3c(c(O)c2[C@@H](O[C@H]2C[C@H](N)[C@H](O)[C@H](C)O2)C1)C(=O)c1ccccc1C3=O [Idarubicin]	24.7 L/kg
CC1=C(/C=C/C(C)=C/C=C/C(C)=C\C(=O)O)C(C)(C)CCC1 [Isotretinoin]	5 L/kg
CCC(C)n1ncn(-c2ccc(N3CCN(c4ccc(OCC5COC(Cn6cncn6)(c6ccc(Cl)cc6Cl)O5)cc4)CC3)cc2)c1=O (centres unmarked) [Itraconazole]	10.7 L/kg
OC(c1cc(C(F)(F)F)nc2c(C(F)(F)F)cccc12)C1CCCCN1 (centres unmarked) [Mefloquine]	19 L/kg
CC12CC3CC(C)(C1)CC(N)(C3)C2 [Memantine]	10.9 L/kg
CCOC(=O)C1(c2ccccc2)CCN(C)CC1 [Meperidine]	4.4 L/kg
CCN(CC)CCNC(=O)c1cc(Cl)c(N)cc1OC [Metoclopramide]	3.4 L/kg
COCCc1ccc(OCC(O)CNC(C)C)cc1 (centres unmarked) [Metoprolol]	4.2 L/kg
CN1CCN2c3ncccc3Cc3ccccc3C2C1 (centres unmarked) [Mirtazapine]	4.5 L/kg

Structure (SMILES)	Vd
O=C1c2c(O)ccc(O)c2C(=O)c2c(NCCNCCO)ccc(NCCNCCO)c21 [Mitoxantrone]	90 L/kg
COc1c(C)c2c(c(O)c1C/C=C(\C)CCC(=O)O)C(=O)OC2 [Mycophenolate]	3.8 L/kg
Cc1cn(-c2cc(NC(=O)c3ccc(C)c(Nc4nccc(-c5cccnc5)n4)c3)cc(C(F)(F)F)c2)cn1 [Nilotinib]	3.0 L/kg
O=[N+]([O-])OCC(CO[N+](=O)[O-])O[N+](=O)[O-] [Nitroglycerin]	3.3 L/kg
CNCCC=C1c2ccccc2CCc2ccccc21 [Nortriptyline]	18 L/kg
Cc1nc2n(c(=O)c1CCN1CCC(c3noc4cc(F)ccc34)CC1)CCCC2O (centres unmarked) [Paliperidone]	9.1 L/kg
Fc1ccc([C@@H]2CCNC[C@H]2COc2ccc3c(c2)OCO3)cc1 [Paroxetine]	17 L/kg
CC[C@@H]([C@H](C)O)n1ncn(-c2ccc(N3CCN(c4ccc(OC[C@@H]5CO[C@@](Cn6cncn6)(c6ccc(F)cc6F)C5)cc4)CC3)cc2)c1=O [Posaconazole]	11.9 L/kg
CCCN[C@H]1CCc2nc(N)sc2C1 [Pramipexole]	7.3 L/kg
O=C(C1CCCCC1)N1CC(=O)N2CCc3ccccc3C2C1 (centres unmarked) [Praziquantel]	9.55 L/kg
CC(CN1c2ccccc2Sc2ccccc21)N(C)C (centres unmarked) [Promethazine]	13.4 L/kg
CC(C)NCC(O)COc1cccc2ccccc12 (centres unmarked) [Propranolol]	4.3 L/kg
OCCOCCN1CCN(C2=Nc3ccccc3Sc3ccccc32)CC1 [Quetiapine]	10 L/kg
O=C(c1ccc(OCCN2CCCCC2)cc1)c1c(-c2ccc(O)cc2)sc2cc(O)ccc12 [Raloxifene]	2348 L/kg
CCCN(CCC)CCc1cccc2c1CC(=O)N2 [Ropinirole]	7.5 L/kg
CO[C@H]1C[C@@H]2CC[C@@H](C)[C@@](O)(O2)C(=O)C(=O)N2CCCC[C@H]2C(=O)O[C@H]([C@H](C)C[C@@H]2CC[C@@H](O)[C@H](OC)C2)CC(=O)[C@H](C)/C=C(\C)[C@@H](O)[C@@H](OC)C(=O)[C@H](C)C[C@H](C)/C=C/C=C/C=C/1C [Sirolimus]	12 L/kg
O=C(O[C@H]1CN2CCC1CC2)N1CCc2ccccc2[C@@H]1c1ccccc1 [Solifenacin]	671 L/kg
CC(=O)S[C@@H]1CC2=CC(=O)CC[C@]2(C)[C@H]2CC[C@@]3(C)[C@@H](CC[C@@]34CCC(=O)O4)[C@H]12 [Spironolactone]	10 L/kg
